Measurements published in patent US11866405B2, “Substituted indazoles as IRAK4 inhibitors” (AstraZeneca AB, priority 2020, dated 2024).
Where two headings read alike, the source gives them in different places.

Assays:
[1] = tested on: LPS-induced lung inflammation; experiment: Mouse model of LPS-induced airway inflammation; type: in vivo; conditions: mice, 5, 15 and 50 mg/kg oral, inhaled LPS 1 mg/mL, 4 h after challenge
Experimental: FIG. 1. In vivo dose response of Example 89 in an acute mouse model of LPS-induced lung inflammation. Example 89 compound was dosed orally to mice 1 h prior to inhaled LPS challenge (1 mg/mL). 4 h after the challenge, the animals were terminated and the levels of IL-6 and TNF-α released in the bronchoalveolar lavage fluid were measured. […] Individual data points represent individual animals, and bars represent the mean value of each group. Statistical differences between groups were calculated with a one-way ANOVA test comparing treatment groups to the vehicle group. **p<0.01, ***p<0.001. The ability of IRAK4 inhibitors according to the specification to reduce inflammatory cytokines and TNF-α in vivo is thus established.
In Vivo Effect of IRAK4 Inhibition in a Mouse Model of LPS-Induced Airway Inflammation
TLRs act as a first sensor of microbes and allergens in the airways and can mediate a rapid inflammatory response. A mouse model of inhaled LPS challenge was used to study the effect of IRAK4 inhibition on the processes of an acute TLR4-driven airway inflammation. […] The levels of proinflammatory cytokines were measured in the BALF supernatant using MSD multiplex assay 8 mice per treatment group were used, except for the LPS/vehicle group where 20 mice were used. […]

[2] = tested on: IL-1β stimulated IL-8 release in hTHP1 cells; experiment: IL-1β-induced IL-8 release in human THP-1 monocyte cell line; type: cell-based; conditions: Homo sapiens, THP-1, 18 h, THP-1 cells, IL-1β 1.8 ng/mL, geometric mean of at least n=2, * n = 1, read-out: hTHP1, IL1β stim, IL8 release red. IC50
[3] = tested on: human PBMCs stimulated with IL-1β; experiment: IL-1β-induced cytokine release in human PBMCs; type: cell-based; conditions: PBMC, 1 ng/mL IL-1β, 20 h
Text: (§1) In Vitro Effect of IRAK4 Inhibitors on LPS- and IL-1β-Induced Cytokine Release in Human PBMCs
(§2) To evaluate the effect and potency of IRAK4 inhibitors on blocking disease-relevant pathways in human primary immune cells, we stimulated human PBMCs (peripheral blood mononuclear cells) with LPS (TLR4 agonist) or IL-1β (IL-1R ligand) and measured the release of the proinflammatory cytokines IL-6 and TNF-α. Briefly, PBMCs were isolated from human blood, donated from healthy individuals, using LymphoPrep density gradient and plated at a cell density of 200 000 cells/well (for LPS assay) or 300 000 cells/well (for IL-1β assay) in 96-well culture plates. Cells were incubated for 1 h with serial dilutions of IRAK4 inhibitor or vehicle (DMSO) prior to stimulation of cells with 0.11 ng/mL LPS (derived from E. coli) or 1 ng/mL recombinant human IL-1β. After 4 h of LPS stimulation or 20 h of […] stimulation, the supernatant was collected and the levels of the proinflammatory cytokines TNF-α, IL-8 and IL-6 were measured by Mesoscale Discovery (MSD) multiplex assay. Dose-response curves were plotted and IC50 values were calculated with 4-parameter curve fit using GraphPad Prism 8 (see Table 3).

[4] = tested on: human PBMCs stimulated with LPS; experiment: LPS-induced cytokine release in human PBMCs; type: cell-based; conditions: PBMC, 0.11 ng/mL LPS, 4 h
Text: as §1, §2

IC50 [2]: 31 nM
SMILES: COc1cc2nn([C@@H]3CC[C@@H](O)C[C@H]3C)cc2cc1C(=O)Nc1cnc2cccnn12 [Example 89, 2-((1R,2R,4R)-4-hydroxy-2-methylcyclohexyl)-N-(imidazo[1,2-b]pyridazin-3-yl)-6-methoxy-2H-indazole-5-carboxamide]
levels of IL-6 in bronchoalveolar lavage fluid [1]: reduced the levels of IL-6 and TNF-α upon inhaled LPS challenge, in a dose-dependent manner
levels of TNF-α in bronchoalveolar lavage fluid [1]: reduced the levels of IL-6 and TNF-α upon inhaled LPS challenge, in a dose-dependent manner
IC50 ([3]; read-out: IC50, IL-6 read-out, IL-1β stimulation): 22 nM
IC50 ([3]; read-out: IC50, IL-8 read-out, IL-1β stimulation): 30 nM
IC50 ([4]; read-out: IC50, IL-6 read-out, LPS stimulation): 32 nM
IC50 ([4]; read-out: IC50, TNF-α read-out, LPS stimulation): 39 nM
